# Source: US10729738B2, “Hindered disulfide drug conjugates” (priority 2015, dated 2020)
# Assay: In vitro disulfide cleavage and immolation by incubation with cysteine or glutathione (LC/MS)
# Assay type: physicochemical
# Conditions: for Percentage of all products: pH 7.0, 37° C.
# Experimental: In a first phase of the experiment, disulfide cleavage and immolation by incubation with cysteine and glutathione—with the thiol concentrations mimic those in plasma and cancer cells—was investigated using unconjugated small molecule model systems with para-nitro-pyridyl disulfide-containing linker drug analogs 1, 2 and 11 below. In particular, cleavage and immolation was evaluated in vitro by incubation at […] with cysteine ([…] or 200 μM) or glutathione (GSH, 4 mM) in 100 mM Tris buffer pH 7.0 containing 5% methanol at 37° C. Aliquots were taken at specified time points and the samples were analyzed by LC/MS on Sciex TripleTOF 5600 on a Hypersil Gold C18 column (100×2.1, […], Thermo Scientific). The column was eluted by a gradient of buffer A (0.1% formic acid in 10 mM ammonium acetate) to buffer B (0.1% formic acid in 10 mM ammonium acetate in 90% acetonitrile), 5% B 0-0.5 min, 5-25% B 0.5-8 min, 25-75% B 8-13 min, and 75-95% B 13-13.5 min, 95% B 13.5-14.5 min, 95-5% B 14.5-15 min at 0.4 mL/min. Under these conditions, para-nitropyridyl thiol was eluted at 5.3 min. All products (compounds 1, 2, 11, 3a, 3b, 4a, 4b, 12a, 12 b, 6, 7, 13 and 8) were separated and characterized by LC/MS/MS in a positive ESI ion mode. All analytes had the protonated molecular MH^+ as the major species with little source fragmentation. Full scan accurate mass peak areas were used to estimate relative abundance of each component and the disappearance of 1, 2, and 11 estimated relative full scan peak areas was consistent with that estimated based on the relative abundance compared to time 0 by MS or UV. The results are reported in Table 15 below and the analytical results are presented in Table 16 below where “Cmpd” refers to compound, “RT” refers to retention time in minutes, and “Calc. Mass” refers to calculated mass. The relative abundance of disulfide cleavage and immolation products over time were evaluated and are disclosed in FIGS. 12A to 12C, 13A to 13C, 14A to 14C and 15A to 15C where the products were monitored by LC/MS from incubations of linker drugs 1, 2, and 11 at pH 7.0 and 37° C. in the presence of: 0.2 mM cysteine (FIGS. 12A, 12B and 12C); 0.03 mM cysteine (FIGS. 13A, 13B and 13C); 4 mM glutathione (FIGS. 14A, 14B and 14C); and 0.03 mM glutathione (FIGS. 15A, 15B and 15C). In FIGS. 12A to 12C, 13A to 13C, 14A to 14C and 15A to 15C, compound reference numbers 1, 2, 3a, 3b, 4a, 4b, 6, 7, 8, 11, 12a, 12b and 13 correspond to the structures below.
smiles,measurement,setting,value
C=C1CC2C=Nc3cc(OCCCCCOc4cc5c(cc4OC)C(=O)N4CC(=C)CC4C(O)N5C(=O)OCC(C)SSc4ccc([N+](=O)[O-])cn4)c(OC)cc3C(=O)N2C1 (stereo not shown) [Compound 1],Percentage of all products,"30 μM cysteine, 1 h",10.6%
same,Percentage of all products,"30 μM cysteine, 4 h",7.9%
same,Percentage of all products,"30 μM cysteine, 24 h",4.5%
same,Percentage of all products,"200 μM cysteine, 1 h",2.8%
same,Percentage of all products,"200 μM cysteine, 4 h",1.0%
same,Percentage of all products,"200 μM cysteine, 24 h",0%
same,Percentage of all products,"4 mM GSH, 1 h",9.1%
same,Percentage of all products,"4 mM GSH, 4 h",0.9%
same,Percentage of all products,"4 mM GSH, 24 h",0.1%
C=C1C[C@H]2C=Nc3cc(OCCCCCOc4cc5c(cc4OC)C(=O)N4CC(=C)C[C@H]4C(O)N5C(=O)OCC4(SSc5ccc([N+](=O)[O-])cn5)CC4)c(OC)cc3C(=O)N2C1 (stereo partly shown) [Compound 2],Percentage of all products,"30 μM cysteine, 1 h",21.1%
same,Percentage of all products,"30 μM cysteine, 4 h",19.1%
same,Percentage of all products,"30 μM cysteine, 24 h",12.0%
same,Percentage of all products,"200 μM cysteine, 1 h",16.1%
same,Percentage of all products,"200 μM cysteine, 4 h",10.8%
same,Percentage of all products,"200 μM cysteine, 24 h",7.0%
same,Percentage of all products,"4 mM GSH, 1 h",17.9%
same,Percentage of all products,"4 mM GSH, 4 h",9.0%
same,Percentage of all products,"4 mM GSH, 24 h",4.3%
C=C1CC2C=Nc3cc(OCCCCCOc4cc5c(cc4OC)C(=O)N4CC(=C)CC4C(O)N5C(=O)OCC(C)SSCC(N)C(=O)O)c(OC)cc3C(=O)N2C1 (stereo not shown) [Compound 3a],Percentage of all products,"30 μM cysteine, 1 h",80.1%
same,Percentage of all products,"30 μM cysteine, 4 h",79.9%
same,Percentage of all products,"30 μM cysteine, 24 h",75.0%
same,Percentage of all products,"200 μM cysteine, 1 h",5.6%
same,Percentage of all products,"200 μM cysteine, 4 h",1.9%
same,Percentage of all products,"200 μM cysteine, 24 h",0%
C=C1CC2C=Nc3cc(OCCCCCOc4cc5c(cc4OC)C(=O)N4CC(=C)CC4C(O)N5C(=O)OCC(C)SSCC(NC(=O)CCC(N)C(=O)O)C(=O)NCC(=O)O)c(OC)cc3C(=O)N2C1 (stereo not shown) [Compound 3b],Percentage of all products,"4 mM GSH, 1 h",0.3%
same,Percentage of all products,"4 mM GSH, 4 h",0%
same,Percentage of all products,"4 mM GSH, 24 h",0%
C=C1C[C@H]2C=Nc3cc(OCCCCCOc4cc5c(cc4OC)C(=O)N4CC(=C)C[C@H]4C(O)N5C(=O)OCC4(SSC[C@H](N)C(=O)O)CC4)c(OC)cc3C(=O)N2C1 (stereo partly shown) [Compound 4a],Percentage of all products,"30 μM cysteine, 1 h",73.7%
same,Percentage of all products,"30 μM cysteine, 4 h",71.1%
same,Percentage of all products,"30 μM cysteine, 24 h",75.9%
same,Percentage of all products,"200 μM cysteine, 1 h",39.1%
same,Percentage of all products,"200 μM cysteine, 4 h",15.2%
same,Percentage of all products,"200 μM cysteine, 24 h",3.2%
C=C1C[C@H]2C=Nc3cc(OCCCCCOc4cc5c(cc4OC)C(=O)N4CC(=C)C[C@H]4C(O)N5C(=O)OCC4(SSC[C@H](NC(=O)CC[C@H](N)C(=O)O)C(=O)NCC(=O)O)CC4)c(OC)cc3C(=O)N2C1 (stereo partly shown) [Compound 4b],Percentage of all products,"4 mM GSH, 1 h",1.1%
same,Percentage of all products,"4 mM GSH, 4 h",0.4%
same,Percentage of all products,"4 mM GSH, 24 h",1.0%
C=C1CC2C=Nc3cc(OCCCCCOc4cc5c(cc4OC)C(=O)N4CC(=C)CC4C(O)N5C(=O)OCC(C)S)c(OC)cc3C(=O)N2C1 (stereo not shown) [Compound 6],Percentage of all products,"30 μM cysteine, 1 h",2.5%
same,Percentage of all products,"30 μM cysteine, 4 h",1.7%
same,Percentage of all products,"30 μM cysteine, 24 h",0.5%
same,Percentage of all products,"200 μM cysteine, 1 h",7.8%
same,Percentage of all products,"200 μM cysteine, 4 h",2.8%
same,Percentage of all products,"200 μM cysteine, 24 h",0.1%
same,Percentage of all products,"4 mM GSH, 1 h",2.6%
same,Percentage of all products,"4 mM GSH, 4 h",0%
same,Percentage of all products,"4 mM GSH, 24 h",0%
same,Immolation of thiol intermediate,incubation with cysteine or glutathione,immolated quickly
"C=C1CC2C=Nc3cc(OCCCCCOc4cc5c(cc4OC)C(=O)N4CC(=C)CC4C=N5)c(OC)cc3C(=O)N2C1 (stereo not shown) [Compound 8, reference compound]",Percentage of all products,"30 μM cysteine, 1 h, listed as 1 to 8, compound 1 to 8 conversion",6.8%
same,Percentage of all products,"30 μM cysteine, 1 h, listed as 2 to 8, compound 2 to 8 conversion",0.1%
same,Percentage of all products,"30 μM cysteine, 1 h, listed as 11 to 8, compound 11 to 8 conversion",3.6%
same,Percentage of all products,"30 μM cysteine, 4 h, listed as 1 to 8, compound 1 to 8 conversion",10.5%
same,Percentage of all products,"30 μM cysteine, 4 h, listed as 2 to 8, compound 2 to 8 conversion",0.1%
same,Percentage of all products,"30 μM cysteine, 4 h, listed as 11 to 8, compound 11 to 8 conversion",8.7%
same,Percentage of all products,"30 μM cysteine, 24 h, listed as 1 to 8, compound 1 to 8 conversion",20.5%
same,Percentage of all products,"30 μM cysteine, 24 h, listed as 2 to 8, compound 2 to 8 conversion",0.5%
same,Percentage of all products,"30 μM cysteine, 24 h, listed as 11 to 8, compound 11 to 8 conversion",27.6%
same,Percentage of all products,"200 μM cysteine, 1 h, listed as 1 to 8, compound 1 to 8 conversion",83.7%
same,Percentage of all products,"200 μM cysteine, 1 h, listed as 2 to 8, compound 2 to 8 conversion",0.1%
same,Percentage of all products,"200 μM cysteine, 1 h, listed as 11 to 8, compound 11 to 8 conversion",68.8%
same,Percentage of all products,"200 μM cysteine, 4 h, listed as 1 to 8, compound 1 to 8 conversion",94.4%
same,Percentage of all products,"200 μM cysteine, 4 h, listed as 2 to 8, compound 2 to 8 conversion",0.3%
same,Percentage of all products,"200 μM cysteine, 4 h, listed as 11 to 8, compound 11 to 8 conversion",83.2%
same,Percentage of all products,"200 μM cysteine, 24 h, listed as 1 to 8, compound 1 to 8 conversion",99.9%
same,Percentage of all products,"200 μM cysteine, 24 h, listed as 2 to 8, compound 2 to 8 conversion",2.5%
same,Percentage of all products,"200 μM cysteine, 24 h, listed as 11 to 8, compound 11 to 8 conversion",97.7%
same,Percentage of all products,"4 mM GSH, 1 h, listed as 1 to 8, compound 1 to 8 conversion",88.0%
same,Percentage of all products,"4 mM GSH, 1 h, listed as 2 to 8, compound 2 to 8 conversion",0.2%
same,Percentage of all products,"4 mM GSH, 1 h, listed as 11 to 8, compound 11 to 8 conversion",86.7%
same,Percentage of all products,"4 mM GSH, 4 h, listed as 1 to 8, compound 1 to 8 conversion",98.5%
same,Percentage of all products,"4 mM GSH, 4 h, listed as 2 to 8, compound 2 to 8 conversion",0.4%
same,Percentage of all products,"4 mM GSH, 4 h, listed as 11 to 8, compound 11 to 8 conversion",94.9%
same,Percentage of all products,"4 mM GSH, 24 h, listed as 1 to 8, compound 1 to 8 conversion",99.9%
same,Percentage of all products,"4 mM GSH, 24 h, listed as 2 to 8, compound 2 to 8 conversion",2.3%
same,Percentage of all products,"4 mM GSH, 24 h, listed as 11 to 8, compound 11 to 8 conversion",99.3%
